From patent publication US9586994B2, “CD44V6-derived peptides for treating breast cancer” (KARLSRUHER INSTITUT FÜR TECHNOLOGIE, priority 2012, dated 2017)
Entries after “also recorded” stand apart in the source; their conditions may differ. Where two headings read alike, the source gives them in different places. No end group written: not given here.

Experiments:
Met = settings: N and E of the pentapeptide changed to A, Matzke et al., Cancer Res. (2005), cited from earlier work
CD44v6 = assay: HGF-induced activation of Met and ERK in L3.6pl cells (Western blot); format: cell-based, human; settings: peptide before induction with 10 ng/ml HGF
Description: Serum-starved cells (24 hours) were induced with the growth factor HGF (10 ng/mL) at 37° C. for 5 minutes. Where indicated, the cells were treated with peptides (100 ng/ml) prior to induction at 37° C. for 10 minutes (100 ng/mL CD44v6 peptide or control peptide). Following the induction with HGF, cells were washed with ice-cold phosphate-buffered saline (PBS). To detect activated Met and ERK, cells were lysed in sodium dodecyl sulfate (SDS)—sample buffer containing 100 mM dithiothreitol (DTT), boiled and subjected to western blot analysis using antibodies against phospho-Met and ERK. The loading controls were performed on the same blot after stripping (62.5 mM Tris, pH 6.8, 2% SDS, 0.8% DTT) by probing with the Met respectively Erk antibody. Blots were stained using the enhanced chemiluminescence system (Thermo Fisher Scientific, Schwerte, Germany). Bands in western blot analysis were quantified with the program Image J (National Institutes of Health).
To expand the studies to human pancreatic tumors, the highly metastatic human pancreatic carcinoma cells L3.6pl (Bruns, et al. Neoplasia (1999), 1(1):50-62) were investigated. These cells originate from the […] cells that have been passaged several times in the liver and the pancreas, a step that rendered them more and more metastatic. It was confirmed that Met is dependent on CD44v6 for its activation and signaling in these cells (FIG. 19A). The L3.6pl cells were treated with HGF in the presence or absence of a human v6 peptide of SEQ ID NO: 2 or SEQ ID NO:6 and Met activation and downstream signaling to ERK was measured. Phosphorylation of both Met and ERK was inhibited by the human v6 peptide. Treatment with a corresponding rat v6 peptide (ctrl peptide, SEQ ID NO: 10 or 11) had no influence on receptor activation and signal transduction (FIG. 19A).
The contribution of CD44v6 to Met signaling in the human epithelial pancreatic cancer cells L3.6pl (derived from Colo 357), the cervix carcinoma cells HeLa and the colon cancer cells HT29 were analysed using the CD44v6 peptide (v6 14mer; v6 5mer tested as well, data not shown).

BSp73ASs6 cells = assay: Rat syngeneic model, subcutaneous BSp73ASs6 tumors, treatment from one week (metastasis formation); format: in vivo; settings: rats, s.c. BSp73ASs6
Description: In the case of the rat syngeneic model, 1×10^6 pancreatic cells (BSp73AS and its transfectants) were subcutaneously injected into the right posterior flank of the animals. Tumors developed for four weeks. During this time period animals injected with BSp73ASs6 cells expressing Met-shRNA or control-shRNA received doxycycline in the drinking water. At the end of the experiment, primary tumors were isolated. Lungs and axillary lymph nodes were analyzed. The tissues were incubated for 24 h in a zinc-fixative (0.5 g calcium acetate, 5.0 g zinc acetate, 5.0 g zinc chloride, in 1 L 0.1 M Tris pH 7.4) and embedded in paraffin for further analysis. In case of peptide or antibody treatment tumors developed for one week before the first treatment. Where indicated, animals received 200 μg of peptide or antibody per injection three times per week for four weeks. Tumor growth was monitored weekly using a caliper Animals were killed at day 28 or 30 after start of the treatment.
For histomorphological analysis paraffin-embedded sections of lungs were stained with hematoxylin and eosin and periodic acid-Schiff (H&E or PAS). Serial sections of the whole tissue blocks were examined by analyzing slices every 20 μm; in each slice, the presence and the extension of the metastatic deposit was assessed, according to the procedure routinely used by pathologists to evaluate the presence of micrometastases.
Rat peptides had the sequences KEKWFENEWQGKNP (SEQ ID NO: 10) and NEWQG (SEQ ID NO: 11). BSp73ASs6 cells were subcutaneously injected into syngeneic rats and rat CD44v6 peptides of SEQ ID NO: 10 or SEQ ID NO: 11 (or mouse control peptides) or the CD44v6 antibody (or IgGs as a control) were injected intra-tumoral or intravenously three times a week. […] This is compatible with the fact that also BSp73AS cells or BSp73ASv1-10Δv6 cells can induce the formation of primary tumors similarly to the v6 transfectants.

L3.6pl cells = assay: Human orthotopic pancreatic cancer model, L3.6pl cells in nude mice, treatment from day 7; format: in vivo, mouse; settings: nude mice, orthotopic L3.6pl; 20 μg i.p. three times per week; listed as rat-specific peptide
Description: In the case of the human orthotopic model, L3.6pl pancreatic carcinoma cells (passage 24-26) were suspended in Hank's balanced salt solution (Invitrogen, Karlsruhe, Germany) after trypsinization. The cells were injected orthotopically in the pancreas of male nude mice as described (Bruns C J et al. (1999) Neoplasia 1(1):50-62). Two groups of 15 mice each were injected i.p. 7 days later with either the human v6 peptide respectively rat control peptide (20 μg). For all experiments described and depicted herein either the rat 14mer control peptide or the human 14mer peptide were used. All experiments were then repeated with the rat 5mer control peptide or the human 5mer peptide (N-R-W-H-E, SEQ ID NO: 2). […] The injection was repeated three times per week for 21 days. Two days after the last treatment the animals were killed.
7 μm thick paraffin sections were deparaffinized and rehydrated. For P-Met staining antigen unmasking was achieved by boiling the slides in 1 mM EDTA pH 8.0 followed by incubation for 15 minutes at a sub-boiling temperature, for CD31 staining the sections were treated with Proteinase K (8 μg/ml) for […] at 37° C. For immunofluorescence staining of P-Met, unspecific binding was blocked with 5% goat serum (DAKO, Glostrup, Denmark) (diluted in 1×PBS/0.3% Triton X-100) for 60 minutes. In the case of immunohistochemistry, endogenous peroxidases were at first blocked with 3% H2O2 in PBS followed by incubation with biotin blocking system (Dako, Glostrup, Denmark) and then unspecific binding was inhibited by incubation with 5% FCS in PBS was used for blocking. The sections were incubated with the P-Met antibody (D26, dilution 1:50 in 1×PBS/1% BSA/0.3% Triton X-100), Met antibody (C-28, dilution 1:50), GFP antibody (sc-101525, dilution 1:50) or CD31 antibody (5 μg/ml) over night or VFF18 (5 μg/ml) o/n at 4° C. After washing in PBS the sections were incubated with Alexa Fluor R 546 goat anti-rabbit (in case of immunofluorescence P-Met and Met staining, dilution 1:500) or a biotinylated secondary antibody (for immunohistochemical stainings rabbit anti-rat antibody for VFF18 and CD31, goat anti-rabbit for P-Met, cleaved Caspase-3 and cleaved Caspase-8 and rabbit anti-mouse for GFP, dilution 1:500) for 45 minutes. For DAB staining the sections were treated with a streptavidin-peroxidase conjugate (Dako, Glostrup, Denmark) and developed with DAB (3,3′-diaminobenzidine) substrate system (3,3′-diaminobenzidine; Biozol, Eching, Germany) For immunofluorescence DAPI was used for nuclear staining.
To test the effect of the peptide on tumor growth and metastasis formation the L3.6pl cells were orthotopically injected into the pancreas of immunosuppressed mice (NCI-nu). […] The primary tumor expresses a high amount of CD44v6 (FIG. 19B). […] Indeed, human HGF in a concentration of 3375 pg/ml was detected in the supernatant (see Material and Methods) after 5 days of culture (data not shown).

BSp73ASs6 tumors = settings: rat
Description: To avoid autofluorescence of fur, rats were shaved around the tumor prior to imaging. Subsequently, animals were anesthetized using 2% isoflurane and gently fixed on the devices' heated plate for the entire time of data acquisition. To reduce fluorescence background, rats were fed with chlorophyll-reduced food (Provimi Kliba AG, Kaiseraugst, Switzerland) for one week prior NIRF imaging. All in vivo analyses were preceded by native scans of animals without any injection of the fluorescent probe. For in vivo analysis, rats were injected with 200 μg DY681-labeled rat v6 11 mer peptide or the human v6 11 mer peptide via the tail vein. Controls were injected with the equal amount of DY681-labeled mouse v6 11mer peptide. […] All peptides were labeled with the fluorescent dye DY681. Data were acquired at the indicated time after injection of the peptides. […]
DY681 fluorescence was measured using excitation at 670 nm in combination with a 700 nm long-pass emission filter. […] Data sets were analyzed with OptiView (ART).
For in vivo experiments, BSp73ASs6 cells were injected subcutaneously into syngeneic rats. […] The accumulation of the fluorescence was measured in the tumor region by Optix MX2 at the indicated time points. […] Then, in vivo binding kinetics of the Dy681-labeled v6 peptides to the subcutaneous tumors were determined. […]

murine 4T1 cells = assay: Syngeneic orthotopic 4T1 mammary carcinoma model in BALB/c mice; format: in vivo, mouse
Description: FIG. 27: Treatment with the v6 14mer reduces growth of the primary tumor and macroscopic metastases formation in the lung. 1×10^6 murine 4T1 cells per mouse were diluted in 50 μl RPMI plus 50 μl Matrigel and injected into the […] mammary fat pad of 10 female BALB/c mice. One week after the injection, the mice were either injected intraperitoneally with 20 μg of the murine v6 14mer dissolved in 100 μl PBS or with 20 μg of control peptide (rat v6 14mer) dissolved in 100 μl PBS. The injection was performed 3 times per week for two weeks. After 2 weeks the mice were sacrificed and the primary tumors and the lungs were extracted. A: Overall reduction of the tumor volume in the v6 peptide treated group B: Immunofluorescent staining for the endothelial marker CD34 to monitor vascularization of the primary tumor. Graphic representation of the reduction of the total vessel area. C: The v6 peptides led to a reduction in macroscopic lung metastasis. The black arrows mark examples for metastases. The scale bar corresponds to a size of 1 cm. Statistical evaluation of the average number of lung metastases. Significance was calculated using Student's t test: p*<0.01; **p<0.005. Each group consisted of 5 animals.
All animals were handled according to German regulations for animal experimentation. The animal experiments were approved by the Regierungspräsidium Karlsruhe (35-9185.81/G-83/04). All mice were obtained from Harlan. 1×10^6 murine 4T1 cells (diluted in either […] of control peptide or […] of CD44v6 peptide (peptides of SEQ ID No.: 6 were tested) in PBS) were orthotopically injected into the mammary fat pad of female BALB/c mice. In succession, 5 of the mice were injected intraperitoneally with a CD44v6-peptide (20 μg per mouse) (peptides of SEQ ID No.: 6 were tested) and 5 of the mice were injected with an unspecific control peptide (20 μg per mouse) three times a week. After four weeks, the mice were sacrificed and the tumors as well as the lung and lymph nodes of the animals were extracted. These organs were then fixed in 4% Formalin, processed and embedded in paraffin. […]

With A-R-W-H-A (ARWHA) [SEQ ID NO: 3] as the substance, how does the “CD44v6 mediated activation of Met” value (Met) read?
The value was “still active in inhibiting CD44v6 mediated activation of Met”.

What about the “CD44v6 mediated activation of Met” value (Met; listed as SEQ ID NO:3) of the same substance?
Its value is “capable of abrogating Met activation”.

For “KEKWFENEWQGKNP [SEQ ID NO: 10, rat CD44v6 14mer; control peptide in human models]”, which “HGF-induced phosphorylation/activation of ERK” value (CD44v6) is on record?
The value was “no influence”.

And the “HGF-induced phosphorylation/activation of Met” value (CD44v6)?
Its value is “no influence”.

And the “Metastasis (axillary lymph nodes and lungs)” value (BSp73ASs6 cells; 200 μg per injection i.t. or i.v., three times a week, four weeks, start after one week)?
Its value is “completely inhibited metastasis”.

And the “Metastasis and micro-metastasis in lung sections (PAS and H&E histology)” value (BSp73ASs6 cells; 200 μg three times a week)?
Its value is “no metastasis nor micro-metastasis could be detected”.

What about the “Outgrowth of primary tumors” value (BSp73ASs6 cells; treatment for 28 days) of the same substance?
Its value is “not influenced”.

What about the “Metastasis formation (liver)” value (L3.6pl cells) of the same substance?
The value was “neither influence on metastasis formation; also recorded: no influence on metastasis formation”.

What about the “Outgrowth of the primary tumor in the pancreas” value (L3.6pl cells) of the same substance?
Its value is “no influence on metastasis formation or on growth of the primary tumor”.

Which “Ex vivo fluorescence in excised tumors and lungs” value (BSp73ASs6 tumors) does the source give for “WFQNGWQGKNP (also: DY681 fluorescent dye label) [mv6 pep Dy681, reference compound]” here?
Its value is “not in tumors and lungs”.

Which “Total number of blood vessels in the primary tumor (anti-CD34 staining)” value (murine 4T1 cells; BALB/c mice, 4T1, 20 μg i.p. 3 times per week for two weeks) does the source give for “v6 14mer: murine v6 14mer per FIG. 27 legend; no sequence printed; b173 and b212 say SEQ ID NO: 6 (KEQWFGNRWHEGYR)” here?
Its value is “significantly reduced”.

What about the “Size of the primary tumor” value (murine 4T1 cells; BALB/c mice, 4T1 in mammary fat pad, 20 μg i.p. 3 times per week for two weeks, 5 animals per group) of the same substance?
The value was “significant decrease of tumor size”.

And the “Macroscopic lung metastases per animal” value (murine 4T1 cells; macroscopic analysis of the lungs, 5 animals per group)?
The value was “three animals showed no macroscopic metastases at all, whereas two animals had only one metastase”.
